By melting point is commonly meant the temperature, or range, at which the solid turns liquid.

Some results are limits rather than exact numbers.

Experimental findings from a melting point compilation (Tetko et al.; mined from patent text by program, amines drawn as free bases though some values may be those of a salt) are described below.

The compound `CC(Cc1c[nH]c2ccccc12)(NC(=O)OC1C2CC3CC(C2)CC1C3)C(=O)NCCc1nc[nH]n1` (stereo not drawn) showed a melting point of 124 to 128 °C.

Compound `CCOC(=O)C1(C(=O)OCC)C(C(C)=O)C(=O)N1Cc1ccc(OC)cc1OC` (stereo not drawn) had a melting point of 84 to 85 °C.

As for `C=CCNC1=NS(=O)(=O)c2ccc(Cl)cc2N1`, the melting point was 284 to 286 °C.

The compound `CC(C)(C)c1ccc(N(Cc2cccc3ccccc23)c2ccccc2)cc1` showed a melting point of 135 to 137 °C.

For `Fc1ccc(Cn2c(NC3CCN(CCSc4nc5ccccc5o4)CC3)nc3ccccc32)cc1`, the melting point was 174 °C.

As to `Cc1cccc(C(=O)n2c3c(c4ccccc42)CC(C(=O)O)(C(=O)O)CC3)c1`, the melting point was in the range of 195 to 200 °C.

The compound `CC1C(C)(C)C2=C(c3oncc3CC2)C1(C)C` (stereo not drawn) yielded a melting point of 81 °C.

With `COc1cc(C)cc(Sc2cccc(F)c2C#N)c1`, the melting point lay in the range of 94 to 95 °C.

`Clc1ccc(-n2cc(-c3n[nH]c4ccccc34)nn2)cn1` showed a melting point of 272 to 280 °C.

For `O=C1Nc2ccccc2N(C(=O)N2CCCC(CCN3CCCCCC3)C2)c2ncccc21` (stereo not drawn), the melting point is 152 to 154 °C.

The compound `N#Cc1cc(F)ccc1Oc1cccc(C(F)(F)F)c1` showed a melting point of 51 °C.

`CCC(=O)NC1(c2ccccc2Cl)C(=O)N(Cc2ccc(C(=O)NC(C)(C)C)cc2OC)c2ccc(Cl)cc21` (stereo not drawn) returned a melting point of 249 °C.

Take `CC(=O)OCCn1ncc(-c2ncc([N+](=O)[O-])n2C)c1C`: the melting point was 79 °C.

Take `Nc1cc2[nH]c(=O)ccc2cn1`: the melting point was above 275 °C.

`Cc1nc2n(c(=O)c1CCO)CCCS2` came in with a melting point of 155 °C.

Consider `CCSc1nc2c(cc1F)c(=O)c(C(=O)O)cn2C1CC1`, for which the melting point is 242 to 244 °C.

In turn, `COc1cccc(C2=Nc3ccc(N4CCCC4)cc3C(=O)C2)c1OC` displayed a melting point of 258 to 260 °C.

With `CC(C)C[C@H](NC(=O)OCc1ccccc1)C(=O)N[C@@H](Cc1cccs1)C(=O)CSCc1ccco1`, the melting point lay within 106 to 107 °C.

On to `CC1(C)CCC2=C1CCC1C3CC(C#N)C(=O)C=C3CCC21` (stereo not drawn), for which the melting point lay within 163 to 165 °C.

Take `CCCc1c(OCCCCCC(=O)NCCCCCCc2cccnc2)ccc(C(C)=O)c1O`: the melting point was 56 to 58 °C.

Consider `CCN(CC)CC(=O)OC1CC2(C)C(C(C)=O)CCC2C2CCC3CC(O)C(Br)CC3(C)C12` (stereo not drawn), for which the melting point lay within 149 to 150 °C.

The compound `CC1Nc2ccccc2N(Cc2ccccc2)C(=O)C1Cc1ccccc1` (stereo not drawn) had a melting point of 140 to 141 °C.

Compound `O=C1Nc2ccccc2SC1CCBr` (stereo not drawn) showed a melting point of 151 to 152 °C.

Consider `CNc1nc(C(N)=O)c(-c2ccncc2)s1`, for which the melting point fell in the range of 212 to 213 °C.

Compound `c1ccc(C(c2ccccc2)N2CCN(CCCCn3cccc3)CC2)cc1` gave a melting point of 80 to 84 °C.

On to `CC(=O)OCC1Cn2cc(C(=O)NCc3ccc(Cl)cc3)c(=O)c3cc(CN4CCOCC4)cc(c32)O1` (stereo not drawn), for which the melting point lay within 215 to 218 °C.

Regarding `O=C(NCCCCCCNC(=O)c1ccc(OC(F)(F)F)cc1)c1ccc(OC(F)(F)F)cc1`, the melting point lay within 179 to 180 °C.

In the case of `O=C(O)c1ccc(Nc2noc(C(F)(F)F)n2)cc1`, the melting point was in the range of 244 to 246 °C.

As to `CCOc1ccnc2[nH]cc(C(C)=O)c12`, the melting point is above 210 °C.

`ON=C(Cl)c1ccc(C(Cl)=NO)cc1` registered a melting point of 178 to 180 °C.

For `CC[C@@]12C[C@H](O)[C@](O)(c3c(F)cccc3F)C[C@H]1CCc1cc(OCc3cccnc3C)ccc12`, the melting point fell in the range of 80 to 83 °C.

As for `CC(=O)N1CCN(CC(=O)Nc2nc(-c3ccccc3)c(-c3ccc(=O)n(C(C)C)n3)s2)CC1`, the melting point lay within 220 to 222 °C.

The compound `CC(C)(C)c1ccc(/C=C/C(=O)OCc2ccccc2)cc1` gave a melting point of 59 to 62 °C.

`CCCCC(CNC(=O)Nc1c(C(C)C)cccc1C(C)C)c1ccc2c(c1)OCO2` (stereo not drawn) had a melting point of 153 to 155 °C.

`CS(=O)(=O)c1ccc(-c2oc(COc3ccccn3)nc2-c2ccc(F)cc2)cc1` gave a melting point of 276 to 278 °C.

In the case of `C=CCCCCCCCCNC(=O)N[C@H]1CCCNC(=O)C1`, the melting point lay in the range of 98 to 99 °C.

Regarding `Cc1ccc(-c2ccc3c(c2)C=C(C(=O)Nc2ccc(CN4CCN(CCO)CC4)cc2)CC3)cc1`, the melting point was in the range of 185 to 187 °C.

As for `COc1ccc(CC2CNC(=O)N2)cc1O` (stereo not drawn), the melting point fell in the range of 192 to 202 °C.

As to `Cc1ncc2c(c1C(=O)O)COc1ccccc1C2=O`, the melting point is 216 to 218 °C.

The compound `O=C1Cc2cc(C3=NNC(=O)C4CC34)ccc2N1` (stereo not drawn) displayed a melting point of 305 to 307 °C.

For `CCOC(=O)c1c2ccc(Cl)cc2c(-c2ccccc2)n1CCNC(=O)OCc1ccccc1`, the melting point lay within 102 to 104 °C.

`CN(C)C=Cc1nc2ccc(F)cc2c(=O)n1-c1ccccc1Cl` returned a melting point of 210 to 211 °C.

`O=C(CCc1ccc2ccccc2c1)CC(=O)CCc1ccc2ccccc2c1`: the melting point lay in the range of 123 to 125 °C.

Take `CCc1c2n(c3ccccc13)C(=O)C(=Cc1ncn(C(c3ccccc3)(c3ccccc3)c3ccccc3)c1C)CC2`: the melting point was 217 to 220 °C.

On to `N#Cc1ccccc1-c1cc(-c2cnc3nccnn23)ccc1F`, for which the melting point was in the range of 211 to 215 °C.

For `CCCCCCCNC(=O)Nc1ccc(C(C)C)cc1C(=O)NCC1CCN(C(c2ccccc2)c2ccccc2)CC1`, the melting point fell in the range of 179 to 180 °C.

For the compound `O=C(c1ccccc1)n1c2cc(O)c(O)cc2c2ccc(O)c(O)c21`, the melting point lay within 242 to 243 °C.

The compound `O=C(O)c1c(Cl)ccc2cc(C(F)(F)F)c(C(F)(F)F)nc12` showed a melting point of 108 to 111 °C.

On to `CNC(=O)c1cccc(C(=O)OC)c1`, for which the melting point was in the range of 128 to 130 °C.

On to `CC(C)/C=C1\NC(=O)CC1=O`, for which the melting point was 134 to 136 °C.

Take `O=C1CCC(c2ccccc2)(c2ccccc2)C2CN(C(Cc3ccccc3)=NCc3ccc(F)cc3)CC12` (stereo not drawn): the melting point stood at 180 °C.

Compound `OCCCNc1cc(-c2ccnc(Nc3cccc(C(F)(F)F)c3)n2)ccn1` returned a melting point of 158 to 163 °C.

The compound `CCCCc1ccc(C(=O)O)c2ccccc12` yielded a melting point of 136 to 137 °C.

`c1ccc(-c2csc(CN3CCN(c4ccccc4)CC3)n2)cc1` showed a melting point of 142 to 143 °C.

The compound `N#Cc1ccc(NC(=CNCC(=O)O)[N+](=O)[O-])cc1` registered a melting point of 230 °C.

For `CC1CC2(C)C(CCC3C2CCC2(C)C(OCc4ccccc4)CCC32)CC1=O` (stereo not drawn), the melting point lay in the range of 116 to 120 °C.

For `Cc1ccc(Sc2cncc3sccc23)cc1`, the melting point lay in the range of 94 to 95 °C.

The compound `C=C1SC(=S)N(c2ccc3cc(-c4ccc(OC)c(-c5ccccc5)c4)ccc3c2)C1=O` displayed a melting point of 266 to 269 °C.

The compound `Nc1nc2c(ncn2C(c2ccccc2)(c2ccccc2)c2ccccc2)c(=O)[nH]1` returned a melting point of 268 to 270 °C.

As for `COc1ccc(C)cc1NC(=O)Nc1ccc(N2CCC(C(=O)Nc3ncccc3C)CC2)cc1`, the melting point fell in the range of 200 to 203 °C.

For the compound `C[C@@H](O[Si](C)(C)C(C)(C)C)[C@H]1C(=O)N[C@@H]1[C@@H](C)C(=O)C(C)(C)O[Si](C)(C)C`, the melting point was determined as 162 °C.

In the case of `COc1ccc2c(O)c(C(=O)N(O)c3ccccc3)cnc2c1`, the melting point amounted to 260 °C.

Compound `CCc1ccc(S(=O)(=O)Nc2cccnc2Nc2ccccc2)cc1` displayed a melting point of 138 to 139 °C.

Regarding `CCS(=O)(=O)N[C@H]1CC[C@H](CCN2CCN(c3nccc4c3OCC4)CC2)CC1`, the melting point stood at 190 °C.

`COc1cc(F)ccc1Nc1ccc2c(c1)OCc1cc(N)ccc1C2=O` returned a melting point of 38.9 °C.

Regarding `CC(C)(N)C(=O)NCCn1ccc2ncnc(Nc3ccc(Oc4cccc5sncc45)c(Cl)c3)c21`, the melting point was determined as 198 °C.

Compound `CN(C)C(=O)c1cc(O)ccc1O` registered a melting point of 144 to 146 °C.

Take `CCC(O)c1cc2cc(OCC(=O)O)c(Cl)c(Cl)c2s1` (stereo not drawn): the melting point lay within 156 to 158 °C.

The compound `COC(=O)[C@H](Cc1ccc(-c2cn(C)c(=O)n(C)c2=O)cc1)NC(=O)c1c(C)cccc1Cl` came in with a melting point of 155 to 157 °C.

`NC(=O)C1(N2C(=O)c3cccc(Br)c3C2=O)CCCCC1` showed a melting point of 199 to 200 °C.

`CCNC(=O)Nc1ncc(-c2ccncc2)cn1` registered a melting point of 241 to 246 °C.

In the case of `COC(=O)c1ccccc1-c1n[nH]c(-c2cccc(C(F)(F)F)c2)n1`, the melting point lay within 110 to 112 °C.

Compound `CN(C)C(=O)C(C)(C)Sc1nc2ccccc2cc1-c1ccccc1` displayed a melting point of 149 to 156 °C.

`CCc1n[nH]c(=O)c2c(C)ncn12` came in with a melting point of 175 to 178 °C.

Compound `CC(C)(COc1ccc(CNC(=O)C2Cc3ccccc3N2S(=O)(=O)c2ccc(-c3cccc(C(F)(F)F)c3)cc2)cc1)C(=O)O` (stereo not drawn) returned a melting point of 95 to 105 °C.

`CCOC(=O)c1ccc2nc(-c3ccc(C)cc3)c(CN(C)C(=O)CC(C)C)n2c1` registered a melting point of 158 to 160 °C.

In turn, `O=C(CNC(=O)OCc1ccccc1)Nc1nnc(SCc2ccccc2)s1` returned a melting point of 200 to 202 °C.

As to `CNS(=O)(=O)c1cn(C)c2cc(Cl)ccc2c1=O`, the melting point lay in the range of 220 to 223 °C.

As for `Cc1cc(C=O)c(OCCCCCCCCc2ccccc2)c(C=O)c1`, the melting point stood at 59 °C.

For the compound `Cc1c(CCC(=O)O)oc2cccc(O)c12`, the melting point fell in the range of 114 to 117 °C.

Compound `O=C1c2c(Cl)cccc2S(=O)(=O)N1Cn1nnn(-c2ccccc2)c1=S` registered a melting point of 158 to 162 °C.

As to `COc1ccc2c(c1)C13CCN(C)C(C2)C1C(C)C(C)C(=O)C3` (stereo not drawn), the melting point lay within 101 to 102 °C.

As for `CCS(=O)(=O)c1cc(C(=O)NCC(Cl)CCCCl)c(OC)cc1N` (stereo not drawn), the melting point came out at 109 °C.

The compound `CCN1CCN(CC)c2cc([N+](=O)[O-])ccc2C1=O` gave a melting point of 79 to 80 °C.

For `CCn1c(=O)c2[nH]c(/C=C/c3cccc(OC)c3)nc2n(CC)c1=O`, the melting point was in the range of 271 to 272 °C.

Take `CCOc1c(Cl)ccc(-c2nc(C(=O)OC)c(Cl)c(S(C)(=O)=O)n2)c1F`: the melting point is 164 to 166 °C.

Compound `CCOC(=O)c1c(Cl)c2cc(F)ccc2n(Cc2ccccc2)c1=O` had a melting point of 118 °C.

In the case of `O=S(=O)(Br)c1ccc(Br)s1`, the melting point is 48 to 50 °C.
